The values below are quoted from earlier work in patent publication US20070191228A1, “Natural herbicide” (priority 2005, published 2007).

Data set [1] relates to large crabgrass (Digitaria sanguimalis). The settings on record: Owens 1973.
The subject of data set [2] is sorghum (Sorghhum bicolor (L.)). The note with it: Owens 1973.

Regarding `N[C@H](CO)CO/C=C/[C@H](N)C(=O)O` [Rhizobitoxine, rhizobitoxine], the herbicidal activity result in data set [1] and in data set [2] was “herbicidal” throughout.
